What was measured:
[1] = system: reactive oxygen species; test: Oxidative stress level (ROS) in the cerebral cortex of LPS-treated mice; format: in vivo; details: cerebral cortex sampled Day 6; oral gavage 0.02 mL/10 g daily Days 1-5; LPS 1 mg/kg intraperitoneally Days 3, 4, 5
Procedure: (§1) The antidepressant effect of the composition was evaluated through the forced swim test in mice and measurement of oxidative stress levels in the cerebral cortex. Specific procedures were as follows:
(§2) Mice aged 8-9 weeks were selected as test subjects (10 mice per composition group for differential analysis and multiple comparisons; in differential analysis, * denoted p<0.05, ** p<0.01, *** p<0.001). The neural repair compositions prepared in the above examples and comparative examples were administered to mice via oral gavage. A positive control group treated with lipopolysaccharide (LPS) and a blank control group treated with physiological saline were included. From Days 1-5, mice were orally gavaged daily at the same time with 0.02 mL (normalized to body weight)/10 g of the compositions. On Days 3, 4, and 5, LPS (1 mg/kg) was intraperitoneally administered alongside the compositions. The positive control group differed by receiving only LPS (1 mg/kg) on Days 3, 4, and 5, while the blank control group received physiological saline throughout Days 1-5. On Day 6, behavioral tests (immobility time in the forced swim test, in s) and tissue sampling for oxidative stress assessment (reactive oxygen species absorption levels, expressed as absorbance) were conducted. The results are detailed in FIG. *to FIG. 2 and Tables 1-2.

[2] = system: mice; test: Forced swim test in LPS-treated mice (improvement of depression); format: in vivo; details: forced swim test on Day 6; oral gavage 0.02 mL/10 g daily Days 1-5; LPS 1 mg/kg intraperitoneally Days 3, 4, 5; 10 mice per group
Procedure: as §1, §2

For lipopolysaccharide [LPS], the ROS absorption level [1] was 0.47 ± 0.10 absorbance and the “Immobility time of mice” value [2] was 230 ± 26 s.

Source: patent US20260115249A1, “NEURAL REPAIR COMPOSITION, METHOD OF PREPARATION, AND USE THEREOF” (SHENZHEN JINFENG BIOMEDICAL TECH. CO., LTD., priority 2023, published 2026)
